Values quoted from earlier work, collected in publication PMC13343212, “Hybrid Aminoferrocenes With Nitrate Esters for In Situ Peroxynitrite Generation: Complex Interplay Between Redox Chemistry, NO‐Donor Reactivity, and Aminoferrocene Activation Influences In Vitro Anticancer Activity” (Chembiochem, 2026).

Details: references for RP‐TLC calibration

Compound | LogP of known references
c1cc2cccc3c4cccc5cccc(c(c1)c23)c54 [perylene] | 6.25
c1ccc2cc3ccccc3cc2c1 [anthracene] | 4.50
